Source: ChEMBL document CHEMBL5034004, “Discovery of M3 Antagonist-PDE4 Inhibitor Dual Pharmacology Molecules for the Treatment of Chronic Obstructive Pulmonary Disease” (J Med Chem, 2021)

How the values were obtained:
[1] = molecular target: Muscarinic acetylcholine receptor M3 (Homo sapiens, UniProt P20309); assay: Displacement of [3H]-N-methyl Scopolamine Chloride from human M3 receptor membranes incubated for 2 hrs by scintillation counting analysis; type: cell membranes, Cell membrane
[2] = molecular target: 3',5'-cyclic-AMP phosphodiesterase 4B (Homo sapiens, UniProt Q07343); assay: Inhibition of human recombinant PDE4B2 assessed as […] in cAMP level incubated for 2 hrs by LANCE Ultra cAMP TR-FRET assay
Sequence of 3',5'-cyclic-AMP phosphodiesterase 4B (Q07343 whole entry): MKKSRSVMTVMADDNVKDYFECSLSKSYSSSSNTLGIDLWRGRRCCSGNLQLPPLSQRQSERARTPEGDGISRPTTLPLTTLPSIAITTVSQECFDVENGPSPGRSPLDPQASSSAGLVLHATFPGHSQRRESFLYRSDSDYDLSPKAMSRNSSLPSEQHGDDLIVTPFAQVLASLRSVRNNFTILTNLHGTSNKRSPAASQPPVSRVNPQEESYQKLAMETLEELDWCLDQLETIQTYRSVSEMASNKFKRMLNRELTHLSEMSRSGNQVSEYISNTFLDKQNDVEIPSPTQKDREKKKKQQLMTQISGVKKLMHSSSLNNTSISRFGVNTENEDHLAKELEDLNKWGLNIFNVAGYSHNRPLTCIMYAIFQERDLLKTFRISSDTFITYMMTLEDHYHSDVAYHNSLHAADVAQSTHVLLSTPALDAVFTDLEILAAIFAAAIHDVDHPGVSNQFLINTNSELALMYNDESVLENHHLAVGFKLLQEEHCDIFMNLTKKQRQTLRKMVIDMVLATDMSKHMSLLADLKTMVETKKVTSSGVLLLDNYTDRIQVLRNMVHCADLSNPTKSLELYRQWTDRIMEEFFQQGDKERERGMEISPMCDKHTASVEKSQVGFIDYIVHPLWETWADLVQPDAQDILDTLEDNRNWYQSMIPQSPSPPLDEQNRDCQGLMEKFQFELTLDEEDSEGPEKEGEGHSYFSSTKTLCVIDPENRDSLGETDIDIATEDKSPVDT

[3] = Antiinflammatory activity in human PBMCs assessed as inhibition of LPS-induced TNF-alpha release measured after 18 hrs by ELISA; type: functional, tissue-based, PBMC; settings: for IC50: Homo sapiens, PBMC, 18 h; for pIC50: pbmc
[4] = Antagonist activity at muscarinic M3 receptor in guinea pig trachea assessed as inhibition of carbachol-induced contraction; type: tissue-based, Cavia porcellus
[5] = molecular target: 3',5'-cyclic phosphodiesterase; assay: Inhibition of PDE4 in human U-937 cells assessed as […] in cAMP level by LANCE cAMP Assay; type: cell-based
[6] = molecular target: Muscarinic acetylcholine receptor M3 (Rattus norvegicus, UniProt P08483); assay: Antagonist activity at muscarinic M3 receptor in rat trachea assessed as inhibition of carbachol-induced contraction; type: functional, tissue-based
Sequence of Muscarinic acetylcholine receptor M3 (Rattus norvegicus, UniProt P08483) (P08483 whole entry): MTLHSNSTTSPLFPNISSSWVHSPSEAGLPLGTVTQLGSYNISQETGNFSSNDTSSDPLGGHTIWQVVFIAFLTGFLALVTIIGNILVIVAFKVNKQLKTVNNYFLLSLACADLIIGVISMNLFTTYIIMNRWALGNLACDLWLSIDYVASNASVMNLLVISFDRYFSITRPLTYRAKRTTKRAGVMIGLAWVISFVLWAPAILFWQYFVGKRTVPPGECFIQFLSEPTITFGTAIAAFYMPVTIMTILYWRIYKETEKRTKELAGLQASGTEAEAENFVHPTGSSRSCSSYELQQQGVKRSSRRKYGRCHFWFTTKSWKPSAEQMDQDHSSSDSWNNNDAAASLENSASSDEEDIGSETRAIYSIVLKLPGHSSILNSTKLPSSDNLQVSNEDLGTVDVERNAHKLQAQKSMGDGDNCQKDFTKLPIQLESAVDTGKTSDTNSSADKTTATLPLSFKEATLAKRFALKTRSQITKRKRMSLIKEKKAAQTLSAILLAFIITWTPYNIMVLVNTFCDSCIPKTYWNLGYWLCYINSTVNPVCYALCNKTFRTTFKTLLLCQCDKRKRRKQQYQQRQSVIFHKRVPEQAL

Sequence of Muscarinic acetylcholine receptor M3 (Homo sapiens, UniProt P20309) (P20309 whole entry): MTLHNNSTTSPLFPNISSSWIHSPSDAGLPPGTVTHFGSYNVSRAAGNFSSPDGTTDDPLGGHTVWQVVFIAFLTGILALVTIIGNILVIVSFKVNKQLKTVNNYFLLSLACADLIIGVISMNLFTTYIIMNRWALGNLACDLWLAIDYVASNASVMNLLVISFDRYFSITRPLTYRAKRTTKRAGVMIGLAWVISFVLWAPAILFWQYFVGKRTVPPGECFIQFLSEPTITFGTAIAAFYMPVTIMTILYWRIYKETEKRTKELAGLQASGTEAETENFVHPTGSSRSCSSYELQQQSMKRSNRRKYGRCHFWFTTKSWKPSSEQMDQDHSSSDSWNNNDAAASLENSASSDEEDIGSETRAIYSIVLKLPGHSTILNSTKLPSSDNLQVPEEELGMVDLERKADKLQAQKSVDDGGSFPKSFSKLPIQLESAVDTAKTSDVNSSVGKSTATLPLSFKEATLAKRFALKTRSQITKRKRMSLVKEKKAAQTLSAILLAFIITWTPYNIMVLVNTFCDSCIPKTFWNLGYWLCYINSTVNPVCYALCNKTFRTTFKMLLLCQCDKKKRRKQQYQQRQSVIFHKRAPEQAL

Structure (SMILES) | Ki [1] [nM] | IC50 [2] [nM] | IC50 [3] [nM] | pIC50 [4] | other results
COc1ccc([C@H](Cc2c(Cl)c[n+]([O-])cc2Cl)OC(=O)c2ccc(CN(C(=O)O[C@H]3CN4CCC3CC4)c3cccnc3)s2)cc1OC | 7.94 |  |  |  | 
COc1ccc([C@H](Cc2c(Cl)c[n+]([O-])cc2Cl)OC(=O)c2ccc(CN(C(=O)O[C@H]3CN4CCC3CC4)c3ccccc3)cc2F)cc1OC | 0.158 | 2.51 | 0.126 | 8.6 | 
COc1ccc([C@H](Cc2c(Cl)c[n+]([O-])cc2Cl)OC(=O)c2ccc(F)c(CN(C(=O)O[C@H]3CN4CCC3CC4)c3ccccc3)c2)cc1OC | 0.2 | 7.94 | 2 | 9 | 
COc1ccc([C@H](Cc2c(Cl)c[n+]([O-])cc2Cl)OC(=O)Cc2ccc(CN(C(=O)O[C@H]3CN4CCC3CC4)c3ccccc3)cc2)cc1OC | 0.316 | 10 |  |  | 
COc1ccc([C@H](Cc2c(Cl)c[n+]([O-])cc2Cl)OC(=O)c2ccc(CN(C(=O)O[C@H]3CN4CCC3CC4)c3ccccc3)cc2)cc1OC | 0.158 | 2 | 2.51 | 8.7 | 
COc1ccc([C@H](Cc2c(Cl)c[n+]([O-])cc2Cl)OC(=O)c2ccc(CN(C(=O)O[C@H]3CN4CCC3CC4)c3cccc(C(F)F)c3)s2)cc1OC | 3.16 | 0.316 | 0.2 | 8.8 | 
O=C(O[C@@H](Cc1c(Cl)c[n+]([O-])cc1Cl)c1ccc(OC(F)F)c(OCC2CC2)c1)c1cccc(NC(C(=O)O[C@H]2CN3CCC2CC3)c2ccccc2)c1 (stereo not given in full) | 0.794 |  |  | < 6 | pIC50 [5]: 9
O=C(O[C@@H](Cc1c(Cl)c[n+]([O-])cc1Cl)c1ccc(OC(F)F)c(OCC2CC2)c1)c1cccc(CN(C(=O)O[C@H]2CN3CCC2CC3)c2ccccc2)c1 | 1.26 |  |  | 6.5 | pIC50 [5]: 9.9
O=C(O[C@@H](Cc1c(Cl)c[n+]([O-])cc1Cl)c1ccc(OC(F)F)c(OCC2CC2)c1)c1cccc(S(=O)(=O)NC(C(=O)O[C@H]2CN3CCC2CC3)c2ccccc2)c1 (stereo not given in full) | 1.26 |  |  | 7.3 | pIC50 [5]: 10
COc1ccc([C@H](Cc2c(Cl)c[n+]([O-])cc2Cl)OC(=O)c2ccc(CN(C(=O)O[C@H]3CN4CCC3CC4)c3cccc(F)c3)s2)cc1OC | 0.2 | 1 | 0.631 | 8.1 | 
COc1ccc([C@H](Cc2c(Cl)c[n+]([O-])cc2Cl)OC(=O)c2ccc(CN(C(=O)O[C@H]3CN4CCC3CC4)c3nccs3)s2)cc1OC | 0.794 | 0.631 | 0.501 | 8.4 | 
COc1ccc([C@H](Cc2c(Cl)c[n+]([O-])cc2Cl)OC(=O)c2ccc(CN(C(=O)O[C@H]3CN4CCC3CC4)c3cccc(O)c3)s2)cc1OC | 0.316 | 0.794 | 0.398 | 9 | 
O=C(O[C@@H](Cc1c(Cl)c[n+]([O-])cc1Cl)c1ccc(OC(F)F)c(OCC2CC2)c1)c1cccc(CNC(C(=O)O[C@H]2CN3CCC2CC3)c2ccccc2)c1 (stereo not given in full) | 0.631 |  |  | 7.6 | pIC50 [5]: 9.5
COc1ccc([C@H](Cc2c(Cl)c[n+]([O-])cc2Cl)OC(=O)c2cccc(NC(C(=O)O[C@H]3CN4CCC3CC4)c3ccccc3)c2)cc1OC (stereo not given in full) | 0.398 |  |  | 7.7 | pIC50 [5]: 9.8
COc1ccc([C@H](Cc2c(Cl)c[n+]([O-])cc2Cl)OC(=O)c2cccc(S(=O)(=O)NC(C(=O)O[C@H]3CN4CCC3CC4)c3ccccc3)c2)cc1OC (stereo not given in full) | 0.631 |  |  | 8.2 | pIC50 [5]: 9.6
COc1ccc([C@H](Cc2c(Cl)c[n+]([O-])cc2Cl)OC(=O)c2cccc(CNC(C(=O)O[C@H]3CN4CCC3CC4)c3ccccc3)c2)cc1OC (stereo in doubt; 86a) | 0.398 |  |  | 8.2 | pIC50 [5]: 9.5
COc1ccc([C@H](Cc2c(Cl)c[n+]([O-])cc2Cl)OC(=O)c2cccc(CNC(C(=O)O[C@H]3CN4CCC3CC4)c3ccccc3)c2)cc1OC (stereo in doubt; 89) | 0.158 | 3.98 | 1.26 | 9 | 

Structure (SMILES) | Ki [1] [nM] | IC50 [2] [nM] | IC50 [3] [nM] | pIC50 [4] | other results
COc1ccc([C@H](Cc2c(Cl)c[n+]([O-])cc2Cl)OC(=O)c2cccc(CNC(C(=O)O[C@H]3CN4CCC3CC4)c3ccccc3)c2)cc1OC (stereo in doubt; 90) | 0.2 | 7.94 |  | 9.1 | pIC50 [3]: 8.6
COc1ccc([C@H](Cc2c(Cl)c[n+]([O-])cc2Cl)OC(=O)c2ccc(CNC(C(=O)O[C@H]3CN4CCC3CC4)c3ccccc3F)s2)cc1OC (stereo in doubt; 91b) | 0.1 | 0.631 | 1 | 8.6 | 
COc1ccc([C@H](Cc2c(Cl)c[n+]([O-])cc2Cl)OC(=O)c2ccc(CN(C)C(C(=O)O[C@H]3CN4CCC3CC4)c3ccccc3)s2)cc1OC (stereo in doubt; 91c) | 0.631 | 2 | 3.16 |  | 
COc1ccc([C@H](Cc2c(Cl)c[n+]([O-])cc2Cl)OC(=O)c2ccc(CNC(C(=O)OC3C[C@H]4CC[C@H](C3)N4C)c3ccccc3)s2)cc1OC (stereo in doubt; 91d) | 0.501 | 1 | 2.51 |  | IC50 [6]: 10 nM
COc1ccc([C@H](Cc2c(Cl)c[n+]([O-])cc2Cl)OC(=O)c2ccc(CNC(C(=O)OC3CCN(C)CC3)c3ccccc3)s2)cc1OC (stereo in doubt; 91e) | 10 | 1 | 1.58 |  | IC50 [6]: 20 nM
COc1ccc([C@H](Cc2c(Cl)c[n+]([O-])cc2Cl)OC(=O)c2ccc(CNC(C(=O)O[C@@H]3CCN(C)C3)c3ccccc3)s2)cc1OC (stereo in doubt; 91f) | 7.94 | 3.16 | 3.98 |  | IC50 [6]: 1 nM
COc1ccc([C@H](Cc2c(Cl)c[n+]([O-])cc2Cl)OC(=O)c2ccc(CNC(C(=O)OC[C@H]3CN4CCC3CC4)c3ccccc3)s2)cc1OC (stereo in doubt; 91g) |  |  | 3.16 |  | IC50 [6]: 20 nM
COc1ccc([C@H](Cc2c(Cl)c[n+]([O-])cc2Cl)OC(=O)c2ccc(CNC(C(=O)OCC3CCN(C)CC3)c3ccccc3)s2)cc1OC (stereo in doubt; 91h) |  |  |  |  | pIC50 [3]: 8.4
COc1ccc([C@H](Cc2c(Cl)c[n+]([O-])cc2Cl)OC(=O)c2ccc(CNC(C(=O)OC[C@H]3CCN3C)c3ccccc3)s2)cc1OC (stereo in doubt; 91i) |  |  |  |  | pIC50 [3]: 8.1; IC50 [6]: 20 nM
COc1ccc([C@H](Cc2c(Cl)c[n+]([O-])cc2Cl)OC(=O)c2ccc(CNC(C(=O)OCCN(C)C)c3ccccc3)s2)cc1OC (stereo in doubt; 91j) | 12.6 | 1 | 3.16 |  | IC50 [6]: 79.4 nM
COc1ccc([C@H](Cc2c(Cl)c[n+]([O-])cc2Cl)OC(=O)c2ccc(CNC(C(=O)O[C@H]3CN4CCC3CC4)c3ccccc3F)s2)cc1OC (stereo in doubt; 92b) | 0.158 |  |  | 8.5 | pIC50 [2]: 9.2; pIC50 [3]: 8.9
COc1ccc([C@H](Cc2c(Cl)c[n+]([O-])cc2Cl)OC(=O)c2ccc(CN(C)C(C(=O)O[C@H]3CN4CCC3CC4)c3ccccc3)s2)cc1OC (stereo in doubt; 92c) |  | 3.16 |  |  | pKi [1]: 9.2; pIC50 [3]: 8.7
COc1ccc([C@H](Cc2c(Cl)c[n+]([O-])cc2Cl)OC(=O)c2ccc(CNC(C(=O)OC3C[C@H]4CC[C@H](C3)N4C)c3ccccc3)s2)cc1OC (stereo in doubt; 92d) | 10 |  |  |  | pIC50 [2]: 9
COc1ccc([C@H](Cc2c(Cl)c[n+]([O-])cc2Cl)OC(=O)c2ccc(CNC(C(=O)OC[C@H]3CN4CCC3CC4)c3ccccc3)s2)cc1OC (stereo in doubt; 92g) |  |  |  |  | pIC50 [3]: 8.4; IC50 [6]: 3.16 nM
COc1ccc([C@H](Cc2c(Cl)c[n+]([O-])cc2Cl)OC(=O)c2ccc(CNC(C(=O)OCC3CCN(C)CC3)c3ccccc3)s2)cc1OC (stereo in doubt; 92h) |  |  |  |  | pIC50 [3]: 8.8; IC50 [6]: 5.01 nM
COc1ccc([C@H](Cc2c(Cl)c[n+]([O-])cc2Cl)OC(=O)c2ccc(CNC(C(=O)OC[C@H]3CCN3C)c3ccccc3)s2)cc1OC (stereo in doubt; 92i) |  |  |  |  | IC50 [6]: 5.01 nM
COc1ccc([C@H](Cc2c(Cl)c[n+]([O-])cc2Cl)OC(=O)c2ccc(CNC(C(=O)OCCN(C)C)c3ccccc3)s2)cc1OC (stereo in doubt; 92j) | 0.398 | 0.631 |  |  | IC50 [6]: 12.6 nM
